Measured values reported in PMC5947527 (Chemical Science, 2015).
Entries after “also recorded” stand apart in the source; their conditions may differ. Residues, ends and D or L forms follow the SMILES beside them. *: point of attachment. NBD = O=[N+]([O-])c1ccc(*)c2nonc12; Ahx = NCCCCCC(=O)O

Tests used:
[1] = Chemical stability on storage in phosphate buffered saline at 37 °C (HPLC); type: physicochemical; conditions: 1 mg mL–1 in PBS, day 0 vs day 3, HPLC, detection at 380 nm
Description: This modification is particularly of relevance due to the expected in vivo inflammatory oxidative environment within an infected pneumonic lung due to infiltrating host inflammatory cells such as neutrophils,[13] and therefore all subsequent modifications incorporated Nle in place of Met.
HPLC chromatograms (gradient acetonitrile + 0.1% formic acid/water + 0.1% formic acid from 5/95 to 95/5 over 10 min, then isocratic for 4 min; detection at 380 nm). UBI-2 (1 mg mL^–1 in PBS, upper panels) and UBI-3 (1 mg mL^–1 in PBS, lower panels) at (A) day 0 and (B) day 3 after incubation at 37 °C.

P. aeruginosa = assay: Live confocal imaging of bacteria, signal to noise of FAM vs NBD label; type: cell-based; conditions: confocal microscopy, 10 μM
From the text: UBI29–41 was firstly conjugated to carboxyfluorescein (UBI-1) and used to image bacteria with analysis via confocal microscopy. This yielded insufficient signal to noise to distinguish bacteria from background fluorescence (Fig. 1). We therefore took advantage of the environmental reporting properties of the fluorophore 7-nitrobenz-2-oxa-1,3-diazole (NBD)[12] and hypothesized there would be fluorescence amplification of NBD in the apolar hydrophobic bacterial membrane.
Fig. 1 NBD–UBI enables live confocal imaging of bacteria. […]
(§1) Confocal Analysis and Fluorescence Quantification: 8-Well Lab-Tek II Confocal Chambers (VWR, PA, USA) were coated in fibronectin (for neutrophil experiments) or poly-d-lysine (for bacteria) at 37 °C for 20 minutes, then washed in PBS prior to bacterial innoculation. […] Exposure to 488 nm light was limited to 5% of the maximum laser power in order to minimize toxicity. ‘Green’ fluorescence (for FAM and NBD) was excited with a dedicated 488 nm line and emitted light detected with meta detector (500-530 nM).
(§2) Syto nuclear and dyes were excited with a dedicated 543 nm line, and emitted light detected with meta detector (570-610 nM). Fields of view were chosen based on the counterstain and at least three fields of view were recorded for each condition. […]
mean fluorescence intensity on the probe channel within this ROI was quantified. […]

[2] = tested on: methicillin-sensitive Staphylococcus aureus (MSSA), Pseudomonas aeruginosa and Klebsiella pneumoniae; assay: Confocal bacterial labelling, UBI-2 vs UBI-3 on a panel of bacteria; type: cell-based; conditions: fluorescence normalised to UBI-2, mean ± SEM, n ≥ 3
Description: Fig. 3 UBI-3 retains specificity and sensitivity for bacterial labelling. […] Panels show bacteria labelled with either UBI-2 or UBI-3 with quantification of fluorescence (values normalised to UBI-2) (Bars represent mean, error bars represent standard error of mean, n ≥ 3, ns = not significant, scale bar = 10 μm). (B) Quantification from confocal images of UBI-3 (10 μM) imaging a panel of bacteria (statistical analyses shown compared to unlabelled bacteria, n ≥ 3 for each bacteria, *** = p < 0.001). […] [MRSA: methicillin-resistant Staphylococcus aureus, MSSA: methicillin-sensitive Staphylococcus aureus]. […]
as §1, §2

[3] = tested on: methicillin-sensitive Staphylococcus aureus; assay: Confocal labelling of MSSA with quantified fluorescence; type: cell-based; conditions: for concentration dependence of bacterial labelling: 0.5 μM to 50 μM, methicillin sensitive S. aureus; for bacterial labelling (fluorescence compared with UBI-3): MSSA, 10 μM, fluorescence normalized to UBI-3, mean ± SEM, n ≥ 3
Description: Fig. 6 Confocal Images of compounds UBI-3 to 9 with quantified fluorescence. Panels show methicillin-sensitive Staphylococcus aureus incubated with UBI-3 to 9 (all 10 μM) with quantification of bacterial fluorescence normalized to UBI-3 (bars represent mean (±SEM), n ≥ 3, ns = not significant, *** = p < 0.001, * = p < 0.05, scale bar = 10 μm).
Fig. 8 Confocal images and quantification of cyclic variants when compared to UBI-3. Panels show methicillin-sensitive Staphylococcus aureus incubated with cyclic UBI compounds (all 10 μM) with quantification of bacterial fluorescence normalized to UBI-3 (bars represent mean (±SEM), n ≥ 3, ns = not significant, ** = p < 0.01, scale bar = 10 μm).
Bacterial Culture and Labelling: Bacteria used were K. pneumoniae (ATCC BAA1706) ATCC, E. coli (ATCC 25922) ATCC, A. baumannii (J3433) Clinical Isolate, P. aeruginosa (J3284) Clinical Isolate, Methicillin Resistant S. aureus (MRSA) (ATCC25923) ATCC and Methicillin Sensitive S. aureus (MSSA) (ATCC 252) ATCC. All bacteria were grown on Lysogeny broth (LB) agar and from a single bacterial colony placed into 10ml of LB and incubated at 37°C for 16 hours in an orbital shaker.
Cultures were centrifuged at 4000rpm for 5 minutes and the pellet resuspended in 1ml phosphate buffered saline (PBS, Life Technologies). Following three further washes in PBS the cultures were reconstituted to 1 OD595 nm. Bacteria were counterstained with 5µM Syto 82 orange fluorescent nucleic acid stain (Invitrogen, CA, USA) in a shaking heat block at 37 °C for 20 minutes. For FCFM bacteria were stained with 1µM Calcein AM (Sigma, MO, USA) for 30 minutes at 37 °C. Counterstained bacteria were washed in PBS to remove excess dye. […]
(§3) Confocal Analysis and Fluorescence Quantification: 8-Well Lab-Tek II Confocal Chambers (VWR, PA, USA) were coated in fibronectin (for neutrophil experiments) or poly-d-lysine (for bacteria) at 37 °C for 20 minutes, then washed in PBS prior to bacterial innoculation. For co-culture assays, neutrophils were seeded on fibronectin coated wells at 1 x 10^5 neutrophils per well for 20 minutes and non-adherent neutrophils aspirated. Bacteria were added to each chamber to a final concentration of 0.5 OD595 nm with the desired final concentration of Smartprobe. A laser-scanning confocal imaging system (LSM510; Carl Zeiss, Jena, Germany), incorporating an upright Axioskop FS2 microscope (63× objective) was used for image acquisition and processing. Exposure to 488 nm light was limited to 5% of the maximum laser power in order to minimize toxicity. ‘Green’ fluorescence (for FAM and NBD) was excited with a dedicated 488 nm line and emitted light detected with meta detector (500-530 nM).
(§4) Syto nuclear and dyes were excited with a dedicated 543 nm line, and emitted light detected with meta detector (570-610 nM). Fields of view were chosen based on the counterstain and at least three fields of view were recorded for each condition. For affinity assays, following initial imaging, the fluid was aspirated and two gentle washes with PBS were performed. The chamber was re-imaged on confocal.
(§5) Analysis was with ImageJ (version 1.46r, National Institutes of Health, USA); the Syto channel was automatically thresholded (MaxEntropy, with a set threshold 0-47) and an ROI generated from this. The […]
(§6) mean fluorescence intensity on the probe channel within this ROI was quantified. Data presented represents the mean of three experiments, from each of which three separate fields of view were assessed. All experiments were performed at least three times unless otherwise stated and results expressed as mean ± SEM. Data was analysed by unpaired t-test and significance was determined as p<0.05 (GraphPad Prism version 5.01 for Windows, GraphPad Software, San Diego California USA).
Ex vivo Human Lung and FCFM Procedure: Human lung samples were obtained from patients undergoing surgical resection for lung carcinoma. All images were obtained on sections of normal lung […]

[4] = tested on: Methicillin sensitive S. aureus, K. pneumoniae and P. aeruginosa; assay: Bacterial affinity: fluorescence retention following a PBS wash (confocal); type: cell-based; conditions: for bacterial affinity (Table 1, effect on efficacy): Table 1 summary
Description: Three compounds (UBI-3, UBI-5 and UBI-10) were assessed for further evaluation. […] In vitro affinity of bacterial binding was assessed by incorporating a wash step in the live confocal imaging protocol with a panel of bacteria with the ‘wash-off’ representing a surrogate indicator of Smartprobe-bacterial labelling affinity. […] UBI-10, therefore, was assessed further in a clinically relevant biological system.
Figure S4. Quantified fluorescence of confocal microscopy images of the compounds UBI-3, UBI-5 and UBI-10 on three bacteria and fluorescence retention following a PBS wash. Quantification of fluorescence intensity of (A) Methicillin sensitive S. aureus, (B) K. pneumoniae and (C) and P. […]
intensity following a PBS wash. […]
as §3, §4, §5, §6
Ex vivo Human Lung and FCFM Procedure: Human lung samples were obtained from patients undergoing surgical resection for lung carcinoma. All images were obtained on sections of normal lung away from the cancerous growth. Informed consent was obtained and the study was approved by the Regional Ethics Committee. Samples were taken fresh from the operating theatre, dissected into 4mm sections and placed in wells of 96 well plate. Bacteria were pre-labelled with Smartprobe or Calcein AM and co-cultured in the well with a maximum volume of 100µl. […]

| Compound | chemical stability in PBS at 37 °C [1] | signal to noise for bacterial labelling (P. aeruginosa) | bacterial labelling, Met vs Nle variant [2] | concentration dependence of bacterial labelling [3] | bacterial labelling (fluorescence compared with UBI-3) [3] | fluorescence following labelling and a PBS wash ([4]; 10 µM, two gentle PBS washes, three bacterial species, n=3) | bacterial affinity (Table 1, effect on efficacy) [4] |
| --- | --- | --- | --- | --- | --- | --- | --- |
| CSCC[C@H](NC(=O)[C@H](CCCNC(=N)N)NC(=O)[C@H](CCCNC(=N)N)NC(=O)[C@H](CCCCN)NC(=O)[C@H](C)NC(=O)[C@H](CCCNC(=N)N)NC(=O)CNC(=O)[C@@H](NC(=O)CCCCCNc1ccc([N+](=O)[O-])c2nonc12)[C@@H](C)O)C(=O)N[C@@H](CCC(N)=O)C(=O)N[C@@H](Cc1ccc(O)cc1)C(=O)N[C@@H](CC(N)=O)C(=O)N[C@@H](CCCNC(=N)N)C(=O)N[C@@H](CCCNC(=N)N)C(N)=O [UBI-2] ({NBD-Ahx}-TGRAKRRMQYNRR-NH2) | underwent chemical degradation; also recorded: Unstable at 37 °C in PBS | good signal to noise; also recorded: higher signal to noise for bacterial labelling over UBI-1 | same fluorescence intensity |  |  |  |  |
| NBD-Ahx-Thr-Gly-Arg-Ala-Lys-Arg-MeArg-Nle-Gln-Tyr-Asn-Arg-Arg-D-Phe-D-Val-NH2 [UBI-5, NBD-UBI with D-amino acids (D-Val and D-Phe) incorporated at the C-terminus] |  |  |  | concentration dependent manner | same intensity as UBI-3 | significantly lower fluorescence | poor bacterial affinity |
| NBD-Ahx-Thr-Gly-Arg-Ala-Lys-MeArg-MeArg-Nle-Gln-Tyr-Asn-MeArg-MeArg-NH2 [UBI-4, NBD-UBI with N-Methylarginine (MeArg) insertion based on MALDI-TOF analysis of cleavage peptides] |  |  |  | concentration dependent increase in bacterial fluorescence | same intensity as UBI-3 |  | poor bacterial affinity |
